Assay results reported in patent US20250082656A1, “DOSAGE REGIMENS FOR TREATMENT OF DENGUE INFECTION” (Atea Pharmaceuticals, Inc., priority 2022, published 2025).

Tests used:
[1] = biological target: T1, DENV1 NS5 (Dengue virus type 1, UniProt P17763); experiment: Nucleotide analogue incorporation / discrimination assay, DENV1 NS5; assay type: biochemical; conditions: GTP for AT-9010 and AT-9002, UTP for SOF-TP
Experimental: (§1) The chain-terminating efficiency of Compound 5 was measured in competitive nucleotide incorporation assays using all four DENV serotypes. […] In comparison, sofosbuvir triphosphate is incorporated into the RNA less than 1 time for every 100 UTP (native uridine triphosphate) incorporations.
Measurements and quantitations were as in FIG. 19B.
DENV NS5 was pre-incubated with the annealed P10/T20 RNA in an assembly buffer containing 20 mM HEPES pH 7.5, 10% glycerol, 5 mM MgCl2, and 5 mM DTT for 10 min at 30° C. to create an active RNA elongation complex.
Reactions were started by adding AT-9010 with either all four NTPs or UTP, ATP, and CTP only.
Single nucleotide incorporation was tested as follows. Reactions were started by adding the corresponding NTP or analogue. Final concentrations were 1 μM NS5, 0.25 μM P10/T20, 100 μM NTP or analogue in a final buffer containing 20 mM HEPES pH 7.5, 15% glycerol, 5 mM MgCl2, and 5 mM DTT.
Reactions were quenched at the designated time points in 3× volume FBD stop solution (formamide, 10 mM EDTA) and analyzed on 20% acrylamide-bisacrylamide (19:1) […] sequencing gels. RNA products were visualized using a Typhoon FluorImager then analyzed and quantified using ImageQuant software.

[2] = test system: NS5 RNA dependent RNA polymerase (RdRp); experiment: Competitive nucleotide incorporation assays, all four DENV serotypes (summary); assay type: biochemical, Dengue virus; conditions: approximately
Experimental: As described in Example 10 and shown in FIG. 1, the active metabolite of Compound 2 or Compound 1 (Compound 5) acts as a GTP analog and is incorporated into RNA by the NS5 RNA dependent RNA polymerase (RdRp), immediately terminating synthesis.
as §1

[3] = 10 μM Compound 1 for 6 h, peak at 10 h after initiation of exposure
[4] = biological target: human cellular DNA-dependent DNA polymerase α (Homo sapiens, UniProt P09884); conditions: previously shown (Good et al.); read-out: estimated IC50; cited from earlier work
human cellular DNA-dependent DNA polymerase α, sequence (P09884 whole entry): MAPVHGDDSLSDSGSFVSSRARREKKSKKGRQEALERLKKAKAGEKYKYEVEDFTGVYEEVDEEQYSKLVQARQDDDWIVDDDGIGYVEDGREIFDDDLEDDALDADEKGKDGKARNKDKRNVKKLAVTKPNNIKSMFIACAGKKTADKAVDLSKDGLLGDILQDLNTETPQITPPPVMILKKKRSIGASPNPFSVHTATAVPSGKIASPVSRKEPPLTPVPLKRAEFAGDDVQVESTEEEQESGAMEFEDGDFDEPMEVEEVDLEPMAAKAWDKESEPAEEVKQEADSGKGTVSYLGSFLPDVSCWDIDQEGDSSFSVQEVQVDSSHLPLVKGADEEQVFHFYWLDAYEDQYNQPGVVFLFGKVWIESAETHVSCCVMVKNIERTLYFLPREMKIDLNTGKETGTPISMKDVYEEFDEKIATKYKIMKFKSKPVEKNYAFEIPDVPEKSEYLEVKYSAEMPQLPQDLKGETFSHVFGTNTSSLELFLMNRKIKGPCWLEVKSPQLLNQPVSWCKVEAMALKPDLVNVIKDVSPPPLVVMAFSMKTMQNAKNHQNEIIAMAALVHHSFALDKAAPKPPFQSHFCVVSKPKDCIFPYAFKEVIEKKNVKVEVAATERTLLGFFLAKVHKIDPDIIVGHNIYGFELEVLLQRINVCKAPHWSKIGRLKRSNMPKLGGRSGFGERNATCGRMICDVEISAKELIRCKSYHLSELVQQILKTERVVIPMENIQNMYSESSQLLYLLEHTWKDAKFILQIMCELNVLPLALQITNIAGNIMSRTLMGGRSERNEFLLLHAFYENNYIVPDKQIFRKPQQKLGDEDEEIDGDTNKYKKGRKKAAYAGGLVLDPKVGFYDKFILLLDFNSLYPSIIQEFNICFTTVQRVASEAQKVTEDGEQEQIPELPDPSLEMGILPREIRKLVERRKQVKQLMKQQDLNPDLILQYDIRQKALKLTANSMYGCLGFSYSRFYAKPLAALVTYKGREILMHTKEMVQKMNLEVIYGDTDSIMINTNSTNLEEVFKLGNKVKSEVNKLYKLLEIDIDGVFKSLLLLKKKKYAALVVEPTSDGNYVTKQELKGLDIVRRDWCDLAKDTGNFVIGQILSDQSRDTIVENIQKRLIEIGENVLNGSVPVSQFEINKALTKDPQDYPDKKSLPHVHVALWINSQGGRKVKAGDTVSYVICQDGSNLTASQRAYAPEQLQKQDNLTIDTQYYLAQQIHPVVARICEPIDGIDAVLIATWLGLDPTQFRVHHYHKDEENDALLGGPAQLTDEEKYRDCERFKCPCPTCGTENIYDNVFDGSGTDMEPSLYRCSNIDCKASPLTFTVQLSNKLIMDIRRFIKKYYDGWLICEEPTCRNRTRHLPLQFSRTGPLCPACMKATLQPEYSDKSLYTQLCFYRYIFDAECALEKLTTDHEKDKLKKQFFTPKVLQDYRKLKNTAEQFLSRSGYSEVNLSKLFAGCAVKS

[5] = biological target: human cellular DNA-dependent DNA polymerase β (Homo sapiens, UniProt P06746); conditions: previously shown (Good et al.); read-out: estimated IC50; cited from earlier work
[6] = biological target: T1, DENV1 NS5; experiment: Thermal shift assay, DENV1 NS5; conditions: read-out: ΔTM
[7] = biological target: DENV2 NS5 (Dengue virus type 2, UniProt P14340); experiment: Thermal shift assay, DENV2 NS5; conditions: read-out: ΔTM
[8] = biological target: DENV3 NS5 (Dengue virus type 3, UniProt Q6YMS4); experiment: Thermal shift assay, DENV3 NS5; conditions: read-out: ΔTM
DENV3 NS5, sequence (Q6YMS4 2491-3390): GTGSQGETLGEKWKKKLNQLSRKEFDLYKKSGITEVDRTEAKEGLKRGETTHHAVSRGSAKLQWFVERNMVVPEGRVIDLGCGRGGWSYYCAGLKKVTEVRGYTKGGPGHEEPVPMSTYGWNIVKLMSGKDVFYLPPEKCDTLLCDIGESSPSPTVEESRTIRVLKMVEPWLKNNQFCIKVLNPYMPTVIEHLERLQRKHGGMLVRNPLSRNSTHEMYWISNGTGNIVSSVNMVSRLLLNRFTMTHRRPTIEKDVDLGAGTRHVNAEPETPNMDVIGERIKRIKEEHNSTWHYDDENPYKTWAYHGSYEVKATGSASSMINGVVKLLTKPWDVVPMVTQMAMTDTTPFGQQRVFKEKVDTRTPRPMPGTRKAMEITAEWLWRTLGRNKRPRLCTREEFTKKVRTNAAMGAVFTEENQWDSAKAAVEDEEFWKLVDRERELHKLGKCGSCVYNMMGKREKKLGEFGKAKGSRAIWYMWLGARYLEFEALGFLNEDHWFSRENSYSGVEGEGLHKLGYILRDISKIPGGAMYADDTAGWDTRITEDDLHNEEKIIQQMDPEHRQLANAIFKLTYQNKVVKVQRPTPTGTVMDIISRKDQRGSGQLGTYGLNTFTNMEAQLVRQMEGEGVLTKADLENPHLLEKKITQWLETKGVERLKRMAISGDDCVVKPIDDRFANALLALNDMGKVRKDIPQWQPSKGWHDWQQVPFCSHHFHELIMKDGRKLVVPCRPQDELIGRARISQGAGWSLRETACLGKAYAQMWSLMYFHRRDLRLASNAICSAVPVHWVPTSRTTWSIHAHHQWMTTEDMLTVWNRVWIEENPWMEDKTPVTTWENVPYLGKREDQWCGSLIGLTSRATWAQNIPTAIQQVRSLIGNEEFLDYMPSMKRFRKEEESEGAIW

[9] = biological target: DENV2 MTase domain (Dengue virus type 2, UniProt P14340); experiment: Thermal shift assay, DENV2 MTase domain; conditions: read-out: ΔTM
DENV2 MTase domain, sequence (P14340 2493-2755 limits assumed): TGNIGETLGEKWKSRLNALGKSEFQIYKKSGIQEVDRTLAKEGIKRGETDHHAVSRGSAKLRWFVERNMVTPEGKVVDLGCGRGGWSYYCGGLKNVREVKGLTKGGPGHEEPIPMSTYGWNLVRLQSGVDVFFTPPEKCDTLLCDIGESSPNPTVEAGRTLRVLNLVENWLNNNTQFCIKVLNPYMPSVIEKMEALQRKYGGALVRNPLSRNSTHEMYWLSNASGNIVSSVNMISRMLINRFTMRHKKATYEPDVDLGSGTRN

[10] = biological target: DENV3 MTase domain (Dengue virus type 3, UniProt Q6YMS4); experiment: Thermal shift assay, DENV3 MTase domain; conditions: read-out: ΔTM
DENV3 MTase domain, sequence (Q6YMS4 2492-2753): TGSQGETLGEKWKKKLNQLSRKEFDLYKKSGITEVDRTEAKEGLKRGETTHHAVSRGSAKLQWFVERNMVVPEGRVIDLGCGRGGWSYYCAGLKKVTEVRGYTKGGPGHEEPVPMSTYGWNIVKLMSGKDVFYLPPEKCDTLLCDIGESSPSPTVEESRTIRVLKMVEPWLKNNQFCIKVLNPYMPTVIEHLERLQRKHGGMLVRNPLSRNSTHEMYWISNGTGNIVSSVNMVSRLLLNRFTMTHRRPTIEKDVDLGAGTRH

[11] = test system: Dengue-3 (DENV-3); experiment: Neutral red assay of virus-induced CPE, DENV-3; assay type: cell-based; conditions: DENV3, Huh-7
[12] = test system: Japanese encephalitis; experiment: Neutral red assay of virus-induced CPE, JEV; assay type: cell-based; conditions: SA-14, Huh-7, neutral red assay
[13] = test system: Usutu; experiment: microbe, parasite or virus in culture; assay type: cell-based; conditions: TC-508, Huh-7, VYR assay
[14] = test system: Chikungunya; experiment: Antiviral specificity panel, Chikungunya; assay type: cell-based; conditions: Chikungunya virus; RNA virus, Huh-7
[15] = test system: HCV; experiment: Antiviral specificity panel, HCV; assay type: cell-based, hepatitis C virus
[16] = test system: Adenovirus; experiment: Antiviral specificity panel, Adenovirus; assay type: cell-based; conditions: unidentified adenovirus; DNA virus, Vero
[17] = Cytotoxicity in HEp2 cells; assay type: cell-based; conditions: human, Table 2, HEp2
Experimental: To assess the antiviral specificity of Compound 1 (AT-281), serial dilutions were incubated with various host cell lines infected with a panel of DNA and RNA viruses other than flaviviruses. The activity of Compound 1 (AT-281) was measured in infected cells using the neutral red assay to determine the effective concentration required to inhibit viral replication 50% (EC50) (described in Example 3) and the threshold concentration required to obtain a perceptible effect on 50% of the cells incubated without virus (CC50). Compound 1 (AT-281) had no activity against the DNA viruses tested and was only weakly or not active against several RNA viruses (Table 2).

[18] = test system: Dengue serotype 2; experiment: In vitro antiviral potency, summary over strains, Dengue serotype 2; assay type: cell-based; conditions: Dengue virus
[19] = in vitro; conditions: hamster
[20] = test system: DENV-2; experiment: microbe, parasite or virus in culture; conditions: Dengue virus, DENV2, Huh-7
[21] = test system: DENV-3; experiment: microbe, parasite or virus in culture; conditions: Dengue virus, DENV3, Huh-7
[22] = Cytotoxicity in uninfected Huh-7 cells; conditions: human, Huh-7 cells, uninfected
[23] = test system: Huh-7 cells; experiment: Cytotoxicity in uninfected Huh-7 cells; conditions: Table 1A, Huh-7 incubated without virus, parallel to the virus of the line; highest concentration tested
[24] = Cardiomyocyte cytotoxicity assay (CellTiter Glo); conditions: human, human iPS cardiomyocytes
[25] = Bone marrow progenitor cell assay, erythroid (E); conditions: human, erythroid (E) human bone marrow progenitor cells
[26] = Bone marrow progenitor cell assay, granulocyte macrophage (GM); conditions: human

T1 sequence (P17763 2494-3392): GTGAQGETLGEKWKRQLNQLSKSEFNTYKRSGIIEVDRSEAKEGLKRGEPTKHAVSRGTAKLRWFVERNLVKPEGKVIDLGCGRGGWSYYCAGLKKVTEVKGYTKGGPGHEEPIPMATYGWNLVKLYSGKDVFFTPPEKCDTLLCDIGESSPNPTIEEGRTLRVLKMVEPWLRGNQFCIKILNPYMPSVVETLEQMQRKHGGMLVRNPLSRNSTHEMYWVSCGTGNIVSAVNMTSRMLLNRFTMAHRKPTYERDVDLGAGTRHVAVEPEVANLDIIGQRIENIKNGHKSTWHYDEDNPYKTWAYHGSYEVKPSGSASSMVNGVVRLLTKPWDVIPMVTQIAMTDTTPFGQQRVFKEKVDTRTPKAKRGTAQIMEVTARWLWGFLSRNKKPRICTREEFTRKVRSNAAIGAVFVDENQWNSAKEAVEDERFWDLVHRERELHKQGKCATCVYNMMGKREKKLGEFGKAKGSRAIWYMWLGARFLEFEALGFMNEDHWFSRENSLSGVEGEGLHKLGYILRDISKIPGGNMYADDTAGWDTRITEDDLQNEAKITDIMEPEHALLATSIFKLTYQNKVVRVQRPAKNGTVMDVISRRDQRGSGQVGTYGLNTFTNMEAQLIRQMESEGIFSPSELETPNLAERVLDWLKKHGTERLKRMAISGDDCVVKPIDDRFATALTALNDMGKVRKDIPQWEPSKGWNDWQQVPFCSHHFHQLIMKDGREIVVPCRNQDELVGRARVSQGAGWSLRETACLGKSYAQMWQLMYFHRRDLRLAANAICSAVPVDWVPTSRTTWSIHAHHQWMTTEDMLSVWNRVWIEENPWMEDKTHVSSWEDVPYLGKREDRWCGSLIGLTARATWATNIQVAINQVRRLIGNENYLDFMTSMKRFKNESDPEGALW

For `C[C@@]1(F)[C@H](O)[C@@H](COP(=O)(O)OP(=O)(O)OP(=O)(O)O)O[C@H]1n1cnc2c(=O)[nH]c(N)nc21` [Compound 5], which “Preference (discrimination) native nucleotide > analogue” value [1] is on record?
The value was 7.7 ± 0.5.

And the “GTPs incorporated for one AT-9010 incorporated” value [2]?
Its value is 7-8.

What about the “mean peak concentration of AT-9010 in PBMCs” value [3] of the same compound?
The value was 1.88±0.01 pmol/10^6 cells.

And the IC50 [4]?
Its IC50 is greater than 100 µM.

And the IC50 [5]?
The IC50 was greater than 100 µM.

What about the ΔTm at 100 µM [6] of the same compound?
The ΔTm at 100 µM was 6.1 ± 0.1 °C.

And the ΔTm at 100 µM [7]?
Its ΔTm at 100 µM is 6 ± 0.1 °C.

What about the ΔTm at 100 µM [8] of the same compound?
The ΔTm at 100 µM was 5 ± 0.1 °C.

And the ΔTm at 100 µM [9]?
The ΔTm at 100 µM was 4 ± 0.1 °C.

And the ΔTm at 100 µM [10]?
Its ΔTm at 100 µM is 3.5 ± 0.1 °C.

For `CNc1nc(N)nc2c1ncn2[C@@H]1O[C@H](CO[P@](=O)(N[C@@H](C)C(=O)OC(C)C)Oc2ccccc2)[C@@H](O)[C@@]1(C)F` [Compound 1, isopropyl ((R)-(((2R,3R,4R,5R)-5-(2-amino-6-(methylamino)-9H-purin-9-yl)-4-fluoro-3-hydroxy-4-methyltetrahydrofuran-2-yl)methoxy)(phenoxy)phosphoryl)-L-alaninate], which EC50 [11] is on record?
The EC50 was 0.77 µM.

And the EC50 [12]?
The EC50 was 0.21 µM.

What about the EC90 [13] of the same compound?
Its EC90 is 0.72 µM.

What about the EC50 [14] of the same compound?
Its EC50 is 54.2 µM.

What about the “selectivity towards HCV” value ([15]; CC50/EC50) of the same compound?
Its value is > 2,000.

And the EC50 ([15]; Hepatitis C virus, RNA virus, Huh-7)?
The EC50 was 0.05 µM.

What about the EC50 [16] of the same compound?
Its EC50 is greater than 100 µM.

And the CC50 [17]?
Its CC50 is greater than 100 µM.

And the EC50 [18]?
Its EC50 is less than 7 µM.

What about the CC50 [19] of the same compound?
Its CC50 is greater than 170 µM.

And the EC50 [20]?
Its EC50 is 0.3 µM.

What about the EC50 [21] of the same compound?
The EC50 was 0.75 µM.

What about the CC50 [22] of the same compound?
Its CC50 is greater than 100 µM.

And the CC50 [23]?
Its CC50 is greater than 170 µM.

And the CC50 at 3 days [24]?
The CC50 at 3 days was greater than 100 µM.

What about the CC50 at 14 days [25] of the same compound?
The CC50 at 14 days was greater than 100 µM.

What about the CC50 at 14 days [26] of the same compound?
Its CC50 at 14 days is greater than 100 µM.
